From patent US9688630B2, “3,3′-disubstituted indolines as inhibitors of cholesterol ester transfer protein” (Merck Sharp & Dohme Corp., priority 2013, dated 2017)

Experiments:
recombinant CETP = molecular target: T1, recombinant CETP (Homo sapiens, UniProt P11597); experiment: RTA assay using recombinant CETP (2% RTA); format: biochemical; settings: 2% human serum
T1 sequence (P11597 18-493): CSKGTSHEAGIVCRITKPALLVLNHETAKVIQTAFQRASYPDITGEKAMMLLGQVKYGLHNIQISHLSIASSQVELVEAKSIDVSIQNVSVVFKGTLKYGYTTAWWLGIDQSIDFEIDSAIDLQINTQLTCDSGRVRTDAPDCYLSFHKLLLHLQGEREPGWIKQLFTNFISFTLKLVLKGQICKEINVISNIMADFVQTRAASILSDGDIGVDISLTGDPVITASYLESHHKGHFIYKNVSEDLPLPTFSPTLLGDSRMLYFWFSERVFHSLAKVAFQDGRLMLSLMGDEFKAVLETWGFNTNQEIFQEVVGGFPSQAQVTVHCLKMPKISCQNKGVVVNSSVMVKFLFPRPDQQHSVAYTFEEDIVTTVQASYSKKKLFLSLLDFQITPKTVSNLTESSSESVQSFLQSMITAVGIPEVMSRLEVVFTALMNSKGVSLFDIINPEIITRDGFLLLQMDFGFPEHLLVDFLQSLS
Experimental: (§1) In Vitro Radioactive Assays of CETP-Catalyzed CE and TG Transfer (RTA Assay)
(§2) Reagents and sources are: [3H] cholesteryl oleate (GE #TRK.886), [3H] Triolein (Perkin-Elmer NET-431), Butylated hydroxyl toluene (Aldrich, #D4740-4), DOPC (Sigma, #P6354), Sodium Bromide (Fisher scientific #S255-500), PEG 8000 (Fisher, #BP233-1), and human HDL (Intracel Corp #RP-036).
(§3) An in vitro assay for determining IC50's to identify compounds that inhibit CETP transfer activity is performed based on a modification of a published method (Morton and Zilversmit, (1981) A plasma inhibitor of triglyceride and cholesteryl ester transfer activities, J. Biol. Chem. 256(23), 11992-11995). The ability of inhibitors to alter CETP activity is performed using two different assays: one using recombinant CETP and one using an endogenous plasma source of CETP. Both assays measure the transfer of [3H] cholesteryl oleate or [3H] triolein from exogenous LDL to HDL.
(§4) Radiolabeled donor particles are generated by first combining 100 μl of 200 μM butylated hydroxyl toluene in CHCl3, 216 μL of 21.57 mM DOPC in EtOH, and either 500 μCi [3H]-triolein (Perkin Elmer #NET-431) or 500 μCi [3H]-cholesteryl oleate (GE #TRK886) in a glass tube. Reagents are mixed, dried under nitrogen, and then resuspended in 2 mL of 50 mM Tris, 27 μM EDTA at pH 7.4. After a brief vortex, the solution is sonicated until clear and mixed with 20 mL of fresh human serum. The mixture is incubated overnight at 37° C. The [3H] labeled LDL substrate is separated at 1.063 g/ml density by sequential ultracentrifugal flotation in NaBr according to the method of Havel, Eder, et al., 1955, and Chapman, Goldstein, et al., 1981. Once isolated the particles are dialyzed 3× in CETP buffer (50 mM Tris, pH 7.4, 100 mM NaCl, 1 mM EDTA). Human HDL is purchased from Intracel and used as the acceptor particles.
(§5) Transfer assays are performed in a 96-well v-bottom polypropylene plate. For the RTA using recombinant CETP (2% RTA), an assay cocktail is prepared with the final concentrations 128 μg/mL HDL, 20 nM rCETP, 2% human serum, and 1×CETP buffer. 1 μL of each test compound diluted in DMSO is added to 47 μL of assay cocktail per well and incubated at 37° C. for 1 hour. To initiate the transfer reaction, 2 μL radiolabeled LDL is added. After an additional 60 min of incubation at 37° C., the transfer action is terminated by precipitation of LDL with an equal volume of 20% W/V PEG 8000. The plates are centrifuged at 2000 rpm for 30 minutes at 4° C. A 40 μL aliquot of the HDL-containing supernatant is transferred to a Packard Optiplate™ with 200 μL of MicroScint™ 20. After mixing, plates are counted by liquid scintillation. Counts present in the supernatant for blanks (wells containing only HDL acceptor, CETP buffer and DMSO) are subtracted from those containing test compounds and used to correct for non-specific transfer.
(§6) Comparison of the counts of samples with inhibitors to an uninhibited (DMSO only) positive control yield a percent inhibition. A plot of percent inhibition vs. log of inhibitor concentration, fit to a Sigmoidal 4 parameter equation is used to calculate IC50.

[1] = molecular target: T2, endogenous CETP from human serum (Homo sapiens, UniProt P11597); experiment: RTA assay using endogenous CETP from serum (95% RTA); format: biochemical; settings: 95% human serum
T2 construct: yielding a concentration of approximately 15 nM endogenous CETP in the assay; from tissue; host or cells: human serum
T2 sequence (P11597 18-493): T1 sequence (P11597 18-493)
Experimental: as §1, §2, §3, §4, §5
For the transfer assay using endogenous CETP from serum (95% RTA), the same procedure is used except that human serum is added such that a final concentration of serum of 95% of the total assay volume is achieved, yielding a concentration of approximately 15 nM endogenous CETP in the assay. This is then combined with HDL and CETP buffer and the reaction proceeds as above and is terminated as described.
as §6

With O[C@H](CN1CC(Cc2cccc(OC(F)(F)F)c2)(c2cccc(C(F)(F)F)c2)c2ccccc21)C(F)(F)F (mixture of isomers) [Example 1, (2R)-1,1,1-trifluoro-3-(3-(3-(trifluoromethoxy)benzyl)-3-(3-(trifluoromethyl)-phenyl)indolin-1-yl)propan-2-ol] the IC50 (recombinant CETP) was 28 nM and the IC50 [1] was 1220 nM.
Molecule O[C@H](CN1CC(Cc2cccc(OC(F)(F)F)c2)(c2cccc(Cl)c2)c2ccccc21)C(F)(F)F (mixture of isomers) [Example 4, (2R)-3-(3-(3-chlorophenyl)-3-(3-(trifluoromethoxy)benzyl)indolin-1-yl)-1,1,1-trifluoropropan-2-ol] has an IC50 (recombinant CETP) of 466 nM and an IC50 [1] of 1380 nM.
In the case of COc1cccc(-c2cccc(C3(Cc4cccc(OC(F)(F)F)c4)CN(C[C@@H](O)C(F)(F)F)c4ccccc43)c2)c1 (mixture of isomers) [Example 25, (2R)-1,1,1-trifluoro-3-(3-(3′-methoxy-[1,1′-biphenyl]-3-yl)-3-(3-(trifluoromethoxy)benzyl)indolin-1-yl)propan-2-ol], the IC50 (recombinant CETP) is reported as 1470 nM and the IC50 [1] is reported as 3130 nM.
Molecule O=C(O)c1ccc(-c2cccc(C3(Cc4cccc(OC(F)(F)F)c4)CN(C[C@@H](O)C(F)(F)F)c4ccccc43)c2)cc1 (mixture of isomers) [Example 26, 3′-(1-((R)-3,3,3-trifluoro-2-hydroxypropyl)-3-(3-(trifluoromethoxy)-benzyl)indolin-3-yl)-[1,1′-biphenyl]-4-carboxylic acid] has an IC50 (recombinant CETP) of 1350 nM and an IC50 [1] of 3860 nM.
With O[C@H](CN1CC(Cc2cccc(OC(F)(F)F)c2)(c2cccc(N3CCOCC3)c2)c2ccccc21)C(F)(F)F (mixture of isomers) [Example 31, (2R)-1,1,1-trifluoro-3-(3-(3-morpholinophenyl)-3-(3-(trifluoromethoxy)benzyl)indolin-1-yl)propan-2-ol] the IC50 (recombinant CETP) was 146 nM and the IC50 [1] was 643 nM.
Molecule O[C@H](CN1CC(Cc2cccc(OC(F)(F)F)c2)(c2cccc(N[C@@H]3CCOC3)c2)c2ccccc21)C(F)(F)F (mixture of isomers) [Example 32] has an IC50 (recombinant CETP) of 252 nM and an IC50 [1] of 1430 nM.
Molecule O[C@H](CN1CC(Cc2ccccc2)(c2cccc(OC(F)(F)F)c2)c2ccccc21)C(F)(F)F (stereo partly drawn) [Example 2] has an IC50 (recombinant CETP) of 238 nM and an IC50 [1] of 746 nM.
Work on O[C@H](CN1CC(Cc2cccc(Br)c2)(c2cccc(OC(F)(F)F)c2)c2ccccc21)C(F)(F)F (stereo partly drawn) [Example 3, (2R)-3-(3-(3-bromobenzyl)-3-(3-(trifluoromethoxy)phenyl)indolin-1-yl)-1,1,1-trifluoropropan-2-ol] yielded an IC50 (recombinant CETP) of 67 nM and an IC50 [1] of 308 nM.
Molecule COc1ccc(CC2(c3cccc(OC(F)(F)F)c3)CN(C[C@@H](O)C(F)(F)F)c3ccccc32)cc1 (stereo partly drawn) [Example 5] has an IC50 (recombinant CETP) of 2150 nM and an IC50 [1] of 9680 nM.
O[C@H](CN1CC(Cc2cccc(OC(F)(F)F)c2)(c2cccc(OC(F)(F)F)c2)c2cc(F)ccc21)C(F)(F)F (stereo partly drawn) [Example 6] was tested, and the IC50 [1] was 763 nM.
Molecule O[C@H](CN1CC(Cc2cccc(OC(F)(F)F)c2)(c2ccc(OC(F)(F)F)cc2)c2ccccc21)C(F)(F)F (stereo partly drawn) [Example 7] has an IC50 [1] of 232 nM.
O[C@H](CN1CC(Cc2cccc(OC(F)(F)F)c2)(c2cccc(OC(F)(F)C(F)F)c2)c2ccccc21)C(F)(F)F (stereo partly drawn) [Example 8] gave an IC50 (recombinant CETP) of 25 nM and an IC50 [1] of 94 nM.
O[C@H](CN1CC(Cc2ccccc2OC(F)(F)F)(c2cccc(OC(F)(F)F)c2)c2ccccc21)C(F)(F)F (stereo partly drawn) [Example 9] was tested, and the IC50 (recombinant CETP) was 1210 nM and the IC50 [1] was 3370 nM.
O[C@H](CN1CC(Cc2cccc(OC(F)(F)F)c2)(c2cccc(OC(F)(F)F)c2)c2ccccc21)C(F)(F)F (stereo partly drawn) [Example 10] gave an IC50 [1] of 69 nM.
Molecule Cc1cccc2c1N(C[C@@H](O)C(F)(F)F)CC2(Cc1cccc(OC(F)(F)F)c1)c1cccc(OC(F)(F)F)c1 (stereo partly drawn) [Example 11] has an IC50 (recombinant CETP) of 155 nM and an IC50 [1] of 491 nM.
O[C@H](CN1CC(Cc2cccc(OC(F)(F)F)c2)(c2cccc(OC(F)(F)F)c2)c2cccc(F)c21)C(F)(F)F (stereo partly drawn) [Example 12] showed an IC50 (recombinant CETP) of 67 nM and an IC50 [1] of 222 nM.
Work on O[C@H](CN1CC(Cc2cccc(OC(F)(F)F)c2)(c2cc(F)cc(C(F)(F)F)c2)c2ccccc21)C(F)(F)F (stereo partly drawn) [Example 13] yielded an IC50 (recombinant CETP) of 102 nM and an IC50 [1] of 2510 nM.
O[C@H](CN1CC(Cc2cccc(OC(F)(F)F)c2)(c2ccc(F)c(C(F)(F)F)c2)c2ccccc21)C(F)(F)F (stereo partly drawn) [Example 14] showed an IC50 (recombinant CETP) of 277 nM and an IC50 [1] of 685 nM.
For O[C@H](CN1CC(Cc2ccc(F)cn2)(c2cccc(OC(F)(F)F)c2)c2cccc(F)c21)C(F)(F)F (stereo partly drawn) [Example 15], the IC50 (recombinant CETP) was 2860 nM.
Molecule Cc1csc(CC2(c3cccc(OC(F)(F)F)c3)CN(C[C@@H](O)C(F)(F)F)c3c(F)cccc32)n1 (stereo partly drawn) [Example 16] has an IC50 (recombinant CETP) of 296 nM and an IC50 [1] of 2000 nM.
Work on O[C@H](CN1CC(Cc2cccc(C(F)(F)F)c2)(c2cccc(OC(F)(F)F)c2)c2cccc(F)c21)C(F)(F)F (stereo partly drawn) [Example 17] yielded an IC50 (recombinant CETP) of 66 nM and an IC50 [1] of 706 nM.
Molecule Cc1ccc(C2(Cc3cccc(OC(F)(F)F)c3)CN(C[C@@H](O)C(F)(F)F)c3ccccc32)cc1Cl (stereo partly drawn) [Example 18] has an IC50 (recombinant CETP) of 161 nM and an IC50 [1] of 1350 nM.
In the case of O[C@H](CN1CC(Cc2cccc(OC(F)(F)F)c2)(c2ccc(F)c(Cl)c2)c2ccccc21)C(F)(F)F (stereo partly drawn) [Example 19], the IC50 (recombinant CETP) is reported as 883 nM and the IC50 [1] is reported as 3740 nM.
In the case of O[C@H](CN1CC(Cc2cccc(OC(F)(F)F)c2)(c2ccnc(C(F)(F)F)c2)c2ccccc21)C(F)(F)F (stereo partly drawn) [Example 20], the IC50 (recombinant CETP) is reported as 447 nM and the IC50 [1] is reported as 2600 nM.
CCOc1cc(C2(Cc3cccc(OC(F)(F)F)c3)CN(C[C@@H](O)C(F)(F)F)c3ccccc32)ccn1 (stereo partly drawn) [Example 21] was tested, and the IC50 (recombinant CETP) was 60 nM and the IC50 [1] was 283 nM.
In the case of CC(C)Oc1cc(C2(Cc3cccc(OC(F)(F)F)c3)CN(C[C@@H](O)C(F)(F)F)c3ccccc32)ccn1 (stereo partly drawn) [Example 22], the IC50 (recombinant CETP) is reported as 43 nM and the IC50 [1] is reported as 101 nM.
CCOc1cc(C2(Cc3cccc(OC)c3)CN(C[C@@H](O)C(F)(F)F)c3ccccc32)ccn1 (stereo partly drawn) [Example 23] was tested, and the IC50 (recombinant CETP) was 249 nM and the IC50 [1] was 681 nM.
Work on O[C@H](CN1CC(Cc2cccc(OC(F)(F)F)c2)(c2ccnc(N3CCOCC3)c2)c2ccccc21)C(F)(F)F (stereo partly drawn) [Example 24] yielded an IC50 (recombinant CETP) of 244 nM and an IC50 [1] of 3120 nM.
Cc1cc(C(=O)O)ccc1-c1cccc(C2(Cc3cccc(OC(F)(F)F)c3)CN(C[C@@H](O)C(F)(F)F)c3ccccc32)c1 (stereo partly drawn) [Example 27] showed an IC50 (recombinant CETP) of 378 nM and an IC50 [1] of 4070 nM.
Cc1ccc(C2(Cc3cccc(OC(F)(F)F)c3)CN(C[C@@H](O)C(F)(F)F)c3ccccc32)cc1-c1ccc(C(=O)O)cc1 (stereo partly drawn) [Example 28] was tested, and the IC50 (recombinant CETP) was 1510 nM.
In the case of Cc1cc(C(=O)O)ccc1-c1cc(C2(Cc3cccc(OC(F)(F)F)c3)CN(C[C@@H](O)C(F)(F)F)c3ccccc32)ccc1C (stereo partly drawn) [Example 29], the IC50 (recombinant CETP) is reported as 1690 nM.
Molecule Cc1cc(C(=O)O)ccc1-c1cc(C2(Cc3cccc(OC(F)(F)F)c3)CN(C[C@@H](O)C(F)(F)F)c3ccccc32)ccc1F (stereo partly drawn) [Example 30] has an IC50 (recombinant CETP) of 328 nM.
